# Paper PMC2921400 (PLoS ONE, 2010)
# Several values for one entry are separate records, joined by “and”; a condition that tells them apart may be missing. Equal values may be shown once. Read-outs that look alike come from different tables or passages of the source.
# Tests used:
# [1] = molecular target: T1, soluble extracellular portion of CD4 (sCD4) (Homo sapiens, UniProt P01730); assay: sCD4 tryptophan fluorescence titration; type: binding; settings: for Kd: pH 7.4, single site binding isotherm; for quenching of sCD4 tryptophan fluorescence / red shift of the emission peak: saturating concentrations of PA analog
# T1 construct: soluble extracellular portion of CD4 (sCD4); purchased Progenics Pharmaceuticals, Inc
# Experimental: The tryptophan fluorescence of the soluble extracellular portion of CD4 (sCD4) was used to estimate binding affinity of PA analogs for sCD4 in-vitro (Figure 2).
# Figure 2 In vitro experiments of PA analogs binding to sCD4. Binding isotherm of the sCD4 tryptophan fluorescence at the wavelength of 350 nm with the increasing concentration of A) 2-BP, B) 6-AP, and C) SP; D) stoichiometric binding of 2-BP to sCD4. Tryptophan fluorescence was measured using an excitation wavelength of 280 nm. In all cases, we observed tryptophan fluorescence quenching of sCD4 by the increasing concentration of PA analogs. During stoichiometric binding experiment the concentration of sCD4 was kept at 200 nM, which is well above the dissociation constant of 2-BP-sCD4, 74 nM. Curve fitting (OriginLab) was performed to find the best values for Kd using a single site binding isotherm approximation.
# Since PA analogs form micelles at micromolar concentration it was important to characterize binding stoichiomentry of PA analogs to CD4 (Figure 2D). […] The concentration of sCD4 was kept at 200 nM, which is well above the 74 nM dissociation constant of 2-BP-CD4. In this case, titrated 2-BP was fully bound. The observed changes in sCD4 fluorescence would level off when 2-BP-sCD4 reached proper stoichiometry.
# Measurements were performed on a Fluorolog-3 fluorescence spectrophotometer (HORIBA Jobin Yvon) at 25°C in a 1-ml stirred cuvette. For fluorescence titration experiments, 100 nM of sCD4 dissolved in 10 mM phosphate buffer [pH 7.4] and 250 mM NaCl was used, and 100 µM solution of PA analogs, 2-BP, 6-AP, and SP dissolved in dimethylsulfoxide (DMSO) was added in 10 nM steps. Titrations in the absence of sCD4 and in the absence PA analogs were performed as reference. Tryptophan fluorescence was measured using an excitation wavelength of 280 nm. The fluorescence emission signal was subtracted from the signal of the reference titrations, and the differences adjusted by the dilution factor were plotted against the final concentration of added PA analogs. Curve fitting (OriginLab) was performed to find the best values for Kd using a single site binding isotherm approximation.
# gp120 (IIIB)-CD4 complex = molecular target: T2, gp120 (IIIB)-CD4 complex (Homo sapiens, UniProt P01730); assay: gp120 capture ELISA, inhibition of gp120-CD4 complex formation; type: binding, HIV-1
# T2 construct: soluble extracellular portion of CD4 (sCD4); purchased ImmunoDiagnostics, Inc., MA
# Experimental: Figure 3 Inhibition of gp120-CD4 complex formation. Inhibition of gp120-CD4 complex formation was investigated by gp120 capture ELISA. […] Strepavidin-HRP was added, and then developed by addition of o-Phenylenediamine dihydrochloride (OPD) substrate. Colorimetric reaction was stopped by adding 1N HCl, and read at 490 nm. Percent of gp120-CD4 binding was calculated from gp120-CD4 complex formation in the absence of any inhibitor. pKi (-log Ki, M) was calculated and plotted in Prizm (GraphPad Software), and inhibition constant, Ki, was calculated by using the equation Ki = IC50/(1+[CD4]/Kd), based on IC50 concentration of bound CD4, [CD4] = 50 nM, and CD4 binding affinity for gp120, Kd = 5 nM. Representative of three experiments, all data are mean ± SD.
# Inhibition of gp120-CD4 complex formation was investigated by CD4-to-gp120 capture ELISA, in accordance with manufacturer's instructions (ImmunoDiagnostics, Inc., MA), and as previously described. […] Strepavidin-HRP was added, and then developed by addition of OPD substrate. Colorimetric reaction was stopped by adding 1N HCl, and read at 490 nm. Percent of gp120-CD4 binding was calculated from gp120-CD4 complex formation in the absence of any inhibitor.
# soluble gp120 = molecular target: T3, soluble gp120 (Human immunodeficiency virus type 1 group M subtype B, UniProt P03375); assay: reverse ELISA: plates coated with sCD4, gp120 incubated with compound; type: binding, HIV-1; settings: plates coated with sCD4, gp120 incubated with increasing concentrations (not shown)
# T3 construct: purchased
# [2] = MTT viability assay in 1G5 cells; type: cell-based; settings: human, 1G5 cells, 100 to 10,000 nM, up to 72 h, vs untreated mock control
# Experimental: (§1) To ascertain possible toxicity of PA analogs, we tested each analog in cell culture system (Figure 4). 1G5 cells were treated with increasing concentrations of 2-BP, 6-AP, or SP, from 100 to 10,000 nM, and viability was determined by MTT assay at 24 h. (not shown) and at 72 h (Figure 4). Viability for all treatments and at all concentrations tested, remained ≥92% for up to 72 h. of follow-up.
# (§2) Figure 4 Viability of PA analogs in tissue culture. 1G5 cells were treated with increasing concentrations of 2-BP, 6-AP, and SP, as indicated, and cell viability was determined 72 h. after treatment by MTT assay. % Viable cells were calculated from untreated mock control, which was taken as 100% viable. Bars indicate ± SD, representative of 2 experiments.
# (§3) For determination of viability, 1G5 cells were seeded in 12 well plates at 1×10^6 cells/well, treated with increasing concentrations of PA analogs, from 100 to 10,000 nM (0.1 to 10 µM), as indicated. After 24 and 72 hours, cells were collected and analyzed for viability by a CellTiter 96 Non-Radioactive Cell Proliferation Assay [(3-(4,5-Dimethyl-2-thiazolyl)-2,5 dephenyltetrazolium, Promega,] (MTT) assay, as specified by the manufacturer, and as previously described.
# [3] = critical micelle concentration by 1D proton NMR; type: physicochemical
# 1G5 cells = assay: MTT viability assay in 1G5 cells; type: cell-based; settings: 100 to 10,000 nM, up to 72 h, vs untreated mock control
# Experimental: as §1, §2, §3
# CD4 receptor = settings: cited from earlier work
# gp120-to-CD4 attachment = molecular target: gp120-to-CD4 attachment; parameters: method as in submitted for publication; settings: ref submitted for publication; read-out: Ki for blocking gp120-to-CD4 attachment; cited from earlier work
# X4-tropic HIV-1 = settings: primary PBL and macrophages; read-out: IC50 of productive X4-tropic HIV-1 infection; cited from earlier work
# R5-tropic HIV-1 [4] = settings: primary PBL and macrophages; read-out: IC50 of productive R5-tropic HIV-1 infection; cited from earlier work
# R5-tropic HIV-1 [5] = tested on: R5-tropic HIV-1; parameters: method as in submitted for publication; settings: ref submitted for publication, cited from earlier work
# gp120 = settings: cited from earlier work
# [6] = 100 nM sCD4, 25°C, read-out: Kd, dissociation constant for sCD4
# [7] = Ki = IC50/(1+[CD4]/Kd), [CD4] = 50 nM, Kd = 5 nM, read-out: Ki, inhibition constant for gp120-CD4 complex formation
Compound,"Kd [1, 6]",quenching of sCD4 tryptophan fluorescence [1] [%],red shift of the emission peak [1] [nm],"Ki (gp120 (IIIB)-CD4 complex; Ki, inhibition constant for gp120-CD4 complex formation, Ki = IC50/(1+[CD4]/Kd), [CD4] = 50 nM, Kd = 5 nM)",inhibition of gp120-CD4 complex formation in reverse experiment (soluble gp120),viability [2] [%],"cmc, critical micelle concentration [3] [µM]","Kd ([1]; Kd, dissociation constant for sCD4, 100 nM sCD4, 25°C)","concentration at which fluorescence quenching was saturated ([1]; stoichiometric titration, sCD4 kept at 200 nM) [µM]",Ki (gp120 (IIIB)-CD4 complex; [7]),"Ki (gp120 (IIIB)-CD4 complex; pKi (-log Ki, M), gp120 (IIIB), 50 nM biotin-sCD4, mean ± SD) [µM]","pKi (-log Ki, M) (gp120 (IIIB)-CD4 complex; gp120 (IIIB), 50 nM biotin-sCD4, mean ± SD)",viability (1G5 cells) [%],Kd (CD4 receptor) [µM],Ki (gp120-to-CD4 attachment) [µM],IC50 (X4-tropic HIV-1) [µM],IC50 (R5-tropic HIV-1 [4]) [µM],inhibition of R5-tropic HIV-1 infection (R5-tropic HIV-1 [5]; cervical explant model of human vagina and submucosa primary PBL and macrophage cells),toxicity in cervical explant model (R5-tropic HIV-1 [5]; cervical explant model of human vagina),binding to gp120 (gp120)
"CCCCCCCCCCCCCCCC(=O)OC[C@H](O)[C@H]1OC(=O)C(O)=C1O [6-AP, 6-O-Palmitoyl-L-ascorbic acid]",0.14 µM and ~0.14 µM,40,3,0.354 µM and ~0.354 µM,not inhibited,≥ 92,7,,,,,,,,,,,,,
"CCCCCCCCCCCCCCC(Br)C(=O)O (centres unmarked) [2-BP, 2-Bromohexadecanoic acid]",,50,4,,not inhibited,≥ 92,5,0.074 µM and ~0.074 µM,200,0.122 µM and ~0.122 µM,0.12,,,,,,,,,
Sucrose palmitate [SP],0.364 µM and ~0.364 µM,60,5,,not inhibited,,30,,,1.49 µM and ~1.49 µM,,5.83 ± 0.15,≥ 92,,,,,,,
"CCCCCCCCCCCCCCCC(=O)O [PA, Palmitic acid]",,,,,,,4,,,,,,,~1.5,~2.53,~0.34,~33,inhibited,without toxicity,does not bind to gp120
